According to US8501770B2 (ArQule, Inc., priority 2009, dated 2013):
pIC50: −log10 of the molar value.

Molecular target: Full-length inactive AKT1 (Homo sapiens, UniProt P31749)
Test: Inactive Akt Alpha Screen Assay
Assay type: biochemical
Details: values not marked with "*"; read-out: Akt1 IC50, (AlphaScreen)
Procedure, shortened: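 AlphaScreen read-out (excitation 640 nm, emission 570 nm) after 90 min incubation at room temperature in the dark. Signal comes from crosstide phosphorylation by AKT1, which was activated by added PDK1, MAPKAPK2, ATP and lipid vesicles, captured via phospho-AKT substrate antibody and streptavidin beads.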

Full-length inactive AKT1, sequence (P31749 whole entry): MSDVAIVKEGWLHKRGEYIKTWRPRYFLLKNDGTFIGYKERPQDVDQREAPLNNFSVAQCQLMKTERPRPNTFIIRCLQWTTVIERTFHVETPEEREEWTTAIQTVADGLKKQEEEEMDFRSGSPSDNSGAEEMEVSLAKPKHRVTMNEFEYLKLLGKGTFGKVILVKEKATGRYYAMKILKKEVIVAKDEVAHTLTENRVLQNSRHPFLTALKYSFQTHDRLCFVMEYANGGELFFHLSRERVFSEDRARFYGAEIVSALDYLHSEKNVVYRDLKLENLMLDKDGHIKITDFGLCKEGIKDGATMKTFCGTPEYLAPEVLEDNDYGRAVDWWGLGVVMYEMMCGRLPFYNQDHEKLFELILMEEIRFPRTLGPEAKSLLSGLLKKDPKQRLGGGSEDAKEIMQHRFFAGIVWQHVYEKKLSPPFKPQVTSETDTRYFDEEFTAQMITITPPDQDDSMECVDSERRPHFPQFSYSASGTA

`CNC(=O)c1cccc(-c2ccc3nc(-c4cccnc4N)n(-c4ccc(CN)cc4)c3n2)c1` [Example 369, 3-(3-(4-(aminomethyl)phenyl)-2-(2-aminopyridin-3-yl)-3H-imidazo[4,5-b]pyridin-5-yl)-N-methylbenzamide] and `CNC(=O)c1cccc(-c2ccc3nc(-c4cccnc4N)n(-c4ccc(C5(N)CCC5)cc4)c3n2)c1` [Example 370, 3-(3-(4-(1-aminocyclobutyl)phenyl)-2-(2-aminopyridin-3-yl)-3H-imidazo[4,5-b]pyridin-5-yl)-N-methylbenzamide] are within 0.2 log units of each other in pIC50: 8.27 for the first, 8.34 for the second.

Compared with `CC(=O)c1cccc(-c2ccc3nc(-c4cccnc4N)n(-c4ccc(C5(N)CCC5)cc4)c3n2)c1` [Example 372, 1-(3-(3-(4-(1-aminocyclobutyl)phenyl)-2-(2-aminopyridin-3-yl)-3H-imidazo[4,5-b]pyridin-5-yl)phenyl)ethanone], `Nc1ncccc1-c1nc2ccc(-c3cccc(C(=O)O)c3)nc2n1-c1ccc(C2(N)CCC2)cc1` [Example 376, 3-(3-(4-(1-aminocyclobutyl)phenyl)-2-(2-3aminopyridin-3-yl)-H-imidazo[4,5-b]pyridin-5-yl)benzoic acid] is 0.26 log units lower in pIC50: 8.68 for the first, 8.42 for the second. The first is the more potent here.

Compared with `Nc1ncccc1-c1nc2ccc(-c3ccccc3)nc2n1-c1ccc(C2(N)COC2)cc1` [Example 373, 3-(3-(4-(3-aminooxetan-3-yl)phenyl)-5-phenyl-3H-imidazo[4,5-b]pyridin-2-yl)pyridin-2-amine], `CNC(=O)C1(c2ccc(-n3c(-c4cccnc4N)nc4ccc(-c5ccccc5)nc43)cc2)CCC1` [Example 378, 1-(4-(2-(2-aminopyridin-3-yl)-5-phenyl-3H-imidazo[4,5-b]pyridin-3-yl)phenyl)-N-methylcyclobutanecarboxamide] is 1.15 log units lower in pIC50: 8.18 for the first, 7.03 for the second. The first is the more potent here.

`Nc1ncccc1-c1nc2ccc(-c3cccc(CO)c3)nc2n1-c1ccc(C2(N)CCC2)cc1` [Example 374, (3-(3-(4-(1-aminocyclobutyl)phenyl)-2-(2-aminopyridin-3-yl)-3H-imidazo[4,5-b]pyridin-5-yl)phenyl)methanol] and `Nc1ncccc1-c1nc2ccc(-c3cccc(O)c3)nc2n1-c1ccc(C2(N)CCC2)cc1` [Example 389, 3-(3-(4-(1-aminocyclobutyl)phenyl)-2-(2-aminopyridin-3-yl)-3H-imidazo[4,5-b]pyridin-5-yl)phenol] are within 0.2 log units of each other in pIC50: 8.89 for the first, 8.80 for the second.

Compared with `CS(=O)(=O)Nc1cccc(-c2ccc3nc(-c4cccnc4N)n(-c4ccc(C5(N)CCC5)cc4)c3n2)c1` [Example 375, N-(3-(3-(4-(1-aminocyclobutyl)phenyl)-2-(2-aminopyridin-3-yl)-3H-imidazo[4,5-b]pyridin-5-yl)phenyl)methanesulfonamide], `CS(=O)(=O)c1cccc(-c2ccc3nc(-c4cccnc4N)n(-c4ccc(C5(N)CCC5)cc4)c3n2)c1` [Example 391, 3-(3-(4-(1-aminocyclobutyl)phenyl)-5-(3-(methylsulfonyl)phenyl)-3H-imidazo[4,5-b]pyridin-2-yl)pyridin-2-amine] is 0.55 log units lower in pIC50: 8.85 for the first, 8.30 for the second. The first is the more potent here.

First: Nc1ncccc1-c1nc2ccc(-c3ccccc3)nc2n1-c1ccc(C2(C(=O)NCCO)CCC2)cc1 [Example 379, 1-(4-(2-(2-aminopyridin-3-yl)-5-phenyl-3H-imidazo[4,5-b]pyridin-3-yl)phenyl)-N-(2-hydroxyethyl)cyclobutanecarboxamide]
Second: Nc1ncccc1-c1nc2ccc(-c3cccc(C(=O)NCCO)c3)nc2n1-c1ccc(C2(N)CCC2)cc1 [Example 385, 3-(3-(4-(1-aminocyclobutyl)phenyl)-2-(2-aminopyridin-3-yl)-3H-imidazo[4,5-b]pyridin-5-yl)-N-(2-hydroxyethyl)benzamide]
The pIC50 of the first is 2.01 log units lower: 6.54 for the first, 8.55 for the second.

`CN(C)C(=O)c1cccc(-c2ccc3nc(-c4cccnc4N)n(-c4ccc(C5(N)CCC5)cc4)c3n2)c1` [Example 380, 3-(3-(4-(1-aminocyclobutyl)phenyl)-2-(2-aminopyridin-3-yl)-3H-imidazo[4,5-b]pyridin-5-yl)-N,N-dimethylbenzamide] and `CN(CCO)C(=O)c1cccc(-c2ccc3nc(-c4cccnc4N)n(-c4ccc(C5(N)CCC5)cc4)c3n2)c1` [Example 386, 3-(3-(4-(1-aminocyclobutyl)phenyl)-2-(2-aminopyridin-3-yl)-3H-imidazo[4,5-b]pyridin-5-yl)-N-(2-hydroxyethyl)-N-methylbenzamide] are within 0.2 log units of each other in pIC50: 8.48 for the first, 8.64 for the second.

Compared with `Nc1ncccc1-c1nc2ccc(-c3ccccc3)nc2n1-c1ccc(C2(NC(=O)Nc3ccccc3)CCC2)cc1` [Example 381, 1-(1-(4-(2-(2-aminopyridin-3-yl)-5-phenyl-3H-imidazo[4,5-b]pyridin-3-yl)phenyl)cyclobutyl)-3-phenylurea], `NC(=O)c1ccc(-c2ccc3nc(-c4cccnc4N)n(-c4ccc(C5(N)CCC5)cc4)c3n2)cc1` [Example 387, 4-(3-(4-(1-aminocyclobutyl)phenyl)-2-(2-aminopyridin-3-yl)-3H-imidazo[4,5-b]pyridin-5-yl)benzamide] is 0.79 log units higher in pIC50: 7.27 for the first, 8.06 for the second. The second is the more potent here.

Going from `Nc1ncccc1-c1nc2ccc(-c3ccccc3CO)nc2n1-c1ccc(C2(N)CCC2)cc1` [Example 382, (2-(3-(4-(1-aminocyclobutyl)phenyl)-2-(2-aminopyridin-3-yl)-3H-imidazo[4,5-b]pyridin-5-yl)phenyl)methanol] to `NC(=O)c1ccccc1-c1ccc2nc(-c3cccnc3N)n(-c3ccc(C4(N)CCC4)cc3)c2n1` [Example 384, 2-(3-(4-(1-aminocyclobutyl)phenyl)-2-(2-aminopyridin-3-yl)-3H-imidazo[4,5-b]pyridin-5-yl)benzamide], the pIC50 falls from 8.00 to 7.43 (0.57 log units).

First: Nc1ncccc1-c1nc2ccc(-c3ccc(CO)cc3)nc2n1-c1ccc(C2(N)CCC2)cc1 [Example 383, (4-(3-(4-(1-aminocyclobutyl)phenyl)-2-(2-aminopyridin-3-yl)-3H-imidazo[4,5-b]pyridin-5-yl)phenyl)methanol]
Second: CNC(=O)c1ccc(-c2ccc3nc(-c4cccnc4N)n(-c4ccc(C5(N)CCC5)cc4)c3n2)cc1 [Example 400, 4-(3-(4-(1-aminocyclobutyl)phenyl)-2-(2-aminopyridin-3-yl)-3H-imidazo[4,5-b]pyridin-5-yl)-N-methylbenzamide]
The pIC50 of the first is 0.54 log units higher: 8.43 for the first, 7.89 for the second.

`Nc1ncccc1-c1nc2ccc(-c3cccc(C(=O)N4CCOCC4)c3)nc2n1-c1ccc(C2(N)CCC2)cc1` [Example 388, (3-(3-(4-(1-aminocyclobutyl)phenyl)-2-(2-aminopyridin-3-yl)-3H-imidazo[4,5-b]pyridin-5-yl)phenyl)(morpholino)methanone] and `Nc1ncccc1-c1nc2ccc(-c3cccc(N4CCOCC4)c3)nc2n1-c1ccc(C2(N)CCC2)cc1` [Example 390, 3-(3-(4-(1-aminocyclobutyl)phenyl)-5-(3-morpholinophenyl)-3H-imidazo[4,5-b]pyridin-2-yl)pyridin-2-amine] are within 0.2 log units of each other in pIC50: 8.52 for the first, 8.64 for the second.

Compared with `N#Cc1cccc(-c2ccc3nc(-c4cccnc4N)n(-c4ccc(C5(N)CCC5)cc4)c3n2)c1` [Example 392, 3-(3-(4-(1-aminocyclobutyl)phenyl)-2-(2-aminopyridin-3-yl)-3H-imidazo[4,5-b]pyridin-5-yl)benzonitrile], `COc1cccc(-c2ccc3nc(-c4cccnc4N)n(-c4ccc(C5(N)CCC5)cc4)c3n2)c1` [Example 396, 3-(3-(4-(1-aminocyclobutyl)phenyl)-5-(3-methoxyphenyl)-3H-imidazo[4,5-b]pyridin-2-yl)pyridin-2-amine] is 0.34 log units higher in pIC50: 8.15 for the first, 8.49 for the second.

Compared with `Nc1ncccc1-c1nc2ccc(-c3ccccn3)nc2n1-c1ccc(C2(N)CCC2)cc1` [Example 393, 3-(3-(4-(1-aminocyclobutyl)phenyl)-5-(pyridin-2-yl)-3H-imidazo[4,5-b]pyridin-2-yl)pyridin-2-amine], `Nc1ncccc1-c1nc2ccc(-c3cnccn3)nc2n1-c1ccc(C2(N)CCC2)cc1` [Example 401, 3-(3-(4-(1-aminocyclobutyl)phenyl)-5-(pyrazin-2-yl)-3H-imidazo[4,5-b]pyridin-2-yl)pyridin-2-amine] is 0.24 log units lower in pIC50: 8.43 for the first, 8.19 for the second. The first is the more potent here.

Going from `Nc1ncccc1-c1nc2ccc(-c3ccncc3)nc2n1-c1ccc(C2(N)CCC2)cc1` [Example 394, 3-(3-(4-(1-aminocyclobutyl)phenyl)-5-(pyridin-4-yl)-3H-imidazo[4,5-b]pyridin-2-yl)pyridin-2-amine] to `Nc1ncccc1-c1nc2ccc(-c3cncnc3)nc2n1-c1ccc(C2(N)CCC2)cc1` [Example 395, 3-(3-(4-(1-aminocyclobutyl)phenyl)-5-(pyrimidin-5-yl)-3H-imidazo[4,5-b]pyridin-2-yl)pyridin-2-amine], the pIC50 falls from 8.41 to 8.01 (0.40 log units).

Compared with `Nc1ncccc1-c1nc2ccc(-c3cccc4[nH]ccc34)nc2n1-c1ccc(C2(N)CCC2)cc1` [Example 397, 3-(3-(4-(1-aminocyclobutyl)phenyl)-5-(1H-indol-4-yl)-3H-imidazo[4,5-b]pyridin-2-yl)pyridin-2-amine], `CN(C)Cc1cccc(-c2ccc3nc(-c4cccnc4N)n(-c4ccc(C5(N)CCC5)cc4)c3n2)c1` [Example 398, 3-(3-(4-(1-aminocyclobutyl)phenyl)-5-(3-((dimethylamino)methyl)phenyl)-3H-imidazo[4,5-b]pyridin-2-yl)pyridin-2-amine] is 0.23 log units lower in pIC50: 8.42 for the first, 8.19 for the second. The first is the more potent here.

Compared with `CN(C)C(=O)c1ccc(-c2ccc3nc(-c4cccnc4N)n(-c4ccc(C5(N)CCC5)cc4)c3n2)cc1` [Example 399, 4-(3-(4-(1-aminocyclobutyl)phenyl)-2-(2-aminopyridin-3-yl)-3H-imidazo[4,5-b]pyridin-5-yl)-N,N-dimethylbenzamide], `CS(=O)(=O)Nc1ccc(-c2ccc3nc(-c4cccnc4N)n(-c4ccc(C5(N)CCC5)cc4)c3n2)cc1` [Example 403, N-(4-{3-[4-(1-aminocyclobutyl)phenyl]-2-(2-aminopyridin-3-yl)-3H-imidazo[4,5-b]pyridin-5-yl}phenyl)methanesulfonamide] is 0.67 log units higher in pIC50: 7.68 for the first, 8.35 for the second. The second is the more potent here.

`CC(=O)Nc1ccc(-c2cnc3c(c2)nc(-c2cccnc2N)n3-c2cccc(CNC(=O)c3cccc(F)c3)c2)cc1` [Example 402, N-(3-(6-(4-acetamidophenyl)-2-(2-aminopyridin-3-yl)-3H-imidazo[4,5-b]pyridin-3-yl)benzyl)-3-fluorobenzamide] was tested, and the pIC50 was 5.55.
